# US11459331B2, “Chemical compounds” (Avista Pharma Solutions, Inc., priority 2019, dated 2022)
# Target: T1, human EP4 receptor (Homo sapiens, UniProt P35408)
# T1 construct: Eurofins Cerep
# Assay: human EP4 receptor antagonist screen (Eurofins Cerep; cAMP HTRF, PGE2 30 nM stimulus, CHO cells)
# Type: cell-based
# Settings: at 100 nM, EP4(h) antagonist effect, human recombinant (CHO cells), 10 min RT, read-out: % inhibition of control reference agonist response (PGE2)
# Description: Compounds were assayed at Eurofins Cerep using the human EP4 receptor antagonist screen. Cellular antagonist effect was calculated as a % inhibition of control reference agonist response for each target (PGE2). In each EP4(h) experiment, a reference antagonist compound, GW627368X, was tested concurrently with the test compounds, and the data were compared with historical values determined at Eurofins. The experiments were accepted in accordance with Eurofins validation Standard Operating Procedure.
# T1 sequence (P35408 whole entry): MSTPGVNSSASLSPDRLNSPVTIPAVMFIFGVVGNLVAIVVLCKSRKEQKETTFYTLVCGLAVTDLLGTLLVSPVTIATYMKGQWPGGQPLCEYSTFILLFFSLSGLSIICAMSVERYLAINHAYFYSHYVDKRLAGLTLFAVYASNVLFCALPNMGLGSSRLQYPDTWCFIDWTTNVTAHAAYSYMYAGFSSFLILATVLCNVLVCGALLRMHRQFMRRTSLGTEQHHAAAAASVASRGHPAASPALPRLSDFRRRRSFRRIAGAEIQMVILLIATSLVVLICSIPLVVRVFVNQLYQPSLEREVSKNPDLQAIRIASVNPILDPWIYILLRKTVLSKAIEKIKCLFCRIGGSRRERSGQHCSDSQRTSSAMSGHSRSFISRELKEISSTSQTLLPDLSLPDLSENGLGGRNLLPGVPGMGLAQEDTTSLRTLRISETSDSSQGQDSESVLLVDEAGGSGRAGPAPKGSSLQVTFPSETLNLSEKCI
row,inhibition at 0.1 µM,SMILES
1,≥ 50%,"CCc1nc2c(C)nc(C)cn2c1-c1ccc(CCNC(=O)NS(=O)(=O)c2ccc(Cl)cc2)cc1 [Compound 1, 1-(4-chlorophenyl)sulfonyl-3-[2-[4-(2-ethyl-6,8-dimethyl-imidazo[1,2-a]pyrazin-3-yl)phenyl]ethyl]urea]"
2,≥ 50%,"CCc1nc2c(C)nc(C)cn2c1-c1ccc(CCNC(=O)NS(=O)(=O)c2ccccc2C)cc1 [Compound 2, 1-[2-[4-(2-ethyl-6,8-dimethyl-imidazo[1,2-a]pyrazin-3-yl)phenyl]ethyl]-3-(o-tolylsulfonyl)urea]"
3,≥ 50%,"CCc1nc2c(C)nc(-c3ccncc3)cn2c1-c1ccc(CCNC(=O)NS(=O)(=O)c2ccc(C)cc2)cc1 [Compound 13, 1-[2-[4-[2-ethyl-8-methyl-6-(4-pyridyl)imidazo[1,2-a]pyrazin-3-yl]phenyl]ethyl]-3-(p-tolylsulfonyl)urea]"
4,≥ 50%,"Cc1ccc(S(=O)(=O)NC(=O)NCCc2ccc(-c3c(-c4ccon4)nc4c(C)nc(C)cn34)cc2)cc1 [Compound 15, 1-[2-[4-(2-isoxazol-3-yl-6,8-dimethyl-imidazo[1,2-a]pyrazin-3-yl)phenyl]ethyl]-3-(p-tolylsulfonyl)urea]"
